Measurements taken from patent US20150157604A1, “PHARMACEUTICAL COMPOSITION FOR THE PROPHYLAXIS AND TREATMENT OF PSYCHOLOGICAL, BEHAVIORAL AND COGNITIVE DISORDERS” (LTD << VALENTA-INTELLEKT >>, priority 2012, published 2015).

Assays:
[1] = tested on: cerebral edema; settings: rats; second administration; cited from earlier work
[2] = tested on: patients with mixed dementia and patients with Alzheimer's disease; assay: Study of pharmacological activity: half-year neurological study (MMSE, visual and aural-speech memory, clock drawing test, Schulte Table); assay type: in vivo, human
From the text: The subjects under the study have been 25 patients with mixed dementia and 12 patients with Alzheimer's disease. The average age of the patients is 70±3 years. Dementia has been diagnosed in accordance with the dementia criteria under ICD-10 [International statistic classification of diseases and problems relating to health. Tenth revision (ICD-10). V.1 (Part 1). Geneva: WHO, 1995; p. 315, 510-1]. Dimentia severity has been assessed according to Clinical Dementia Rating Scale—CDR [Hughes C P, Berg L, Danziger W L et al. A new clinical scale for the staging of dementia. Brit J Psychiatry 1982; 140: 566-72]. In the group of patients with mixed dementia it is 1.2±0.3, and in the group with Alzheimer's disease—1.1±0.36. All the patients have been subdivided into two groups. The first group has received […] of memantine once a day. The second group received capsules according to Example 4. A complex neurological study has been conducted with the patients for half a year, the study included brief evaluation of mental status (MMSE), a test for visual and aural-speech memory under the dementia scale, the clock drawing test as well as the test for attention—Schulte Table. The outcome has been processed with the use of the statistical package for social sciences (SPSS), Version 10.0.

[3] = cited from earlier work
[4] = tested on: dopamine concentration in the forebrain regions; settings: cited from earlier work

| Structure (SMILES) | reduction of the volume of cerebral edema [1] | increase of clock drawing test ([2]; in 6 months) | increase of total score of the mental status evaluation (MMSE) ([2]; in 6 months, patients with mixed dementia or Alzheimer's disease) | lowering of Schulte test ([2]; in 6 months, test for attention) | increase of visual memory ([2]; in 6 months, test under the dementia scale) | patients with positive therapeutic effect ([2]; patients with Alzheimer's disease) | patients with positive therapeutic effect ([2]; patients with mixed dementia) | side effects ([2]; patients, half-year study) | time to concentration peak in the brain ([3]; after a single dosing) | half-life ([3]; in vivo) | dopamine concentration ([4]; after a single dosing) | rise of dopamine concentration in the forebrain regions ([4]; during prolonged administration) |
| --- | --- | --- | --- | --- | --- | --- | --- | --- | --- | --- | --- | --- |
| COc1ccc2[nH]cc(CCNC(C)=O)c2c1 [melatonin, N-acetyl-5-methoxytriptamine] | 2 times |  |  |  |  |  |  |  |  |  |  |  |
| CC12CC3CC(C)(C1)CC(N)(C3)C2 [memantine, 1-amino-3,5-dimethyladamantan] |  | 0.2±0.1 | 1.5±0.3 | 20.5±3.6 | 0.5±0.2 | 25% | 86% | increase in the intracranial pressure was observed | one | approximately 100 hours | remains unchanged | ≥ 10 times |
